The values below are quoted from earlier work in patent US20020095197A1, “Application of photochemotherapy for the treatment of cardiac arrhythmias” (priority 2000, published 2002).

In this data set the test system is vascular wall (adventitia, media, intima). The settings on record: photochemotherapy with Photofrin applied; literature report (Gonschior et al. 1997).

With porfimer sodium [Photofrin], the “inflammatory cells in vessel wall layers following vascular trauma” value is recorded as “presence of inflammatory cells in the adventitia (outermost layers), but not in the media or intima”.
